Reference: BigSolDB 2.1

CCOC(=O)c1ccc(O)cc1
solubility (mole fraction)
Details | 278.15 K | 283.15 K | 288.15 K | 293.15 K | 298.15 K | 303.15 K | 308.15 K | 313.15 K | 318.15 K
in acetonitrile | 0.0703 | 0.0822 | 0.0995 | 0.121 | 0.148 | 0.178 | 0.214 | 0.252 | 0.293
in water | 2.62e-05 | 3.64e-05 | 5.25e-05 | 7.52e-05 | 9.7e-05 | 0.000119 | 0.000145 | 0.000169 | 0.000192
